What all share (format): cell-based
Holding throughout (details): free compounds (natural products and synthetic analogs), cell viability 96 hours after treatment

Test [1] has as its system N87 (gastric cancer) cells. The test can be described thus: In vitro cell assay (MTS cell viability), N87. As for the experimental part:
(§1) Target expressing (BT474 (breast cancer), N87 (gastric cancer), HCC1954 (breast cancer), MDA-MB-361-DYT2 (breast cancer)) or non-expressing (MDA-MB-468) cells were seeded in 96-well cell culture plates for 24 hours before treatment. Cells were treated with 3-fold serially diluted antibody-drug conjugates or free compounds (i.e., no antibody conjugated to the drug) in duplicate at 10 concentrations. Cell viability was determined by CellTiter 96® AQueous One Solution Cell Proliferation MTS Assay (Promega, Madison Wis.) 96 hours after treatment. Relative cell viability was determined as percentage of untreated control. IC50 values were calculated using a four parameter logistic model #203 with XLfit v4.2 (IDBS, Guildford, Surry, UK). The potency ranged upward from 0.0002 nm. Similar procedures and techniques were employed.

Test [2] deals with BT474 (breast cancer) cells. The test can be described thus: In vitro cell assay (MTS cell viability), BT474. Here is the method: as §1
The test system of test [3] is MDA-MB-361-DYT2 (breast cancer) cells. The test can be described thus: In vitro cell assay (MTS cell viability), MDA-MB-361-DYT2. Here is the method:
as §1

Turning to `CC(=O)O[C@@H](C)/C=C\C(=O)N[C@@H]1C[C@H](C)[C@H](C/C=C(C)/C=C/[C@@H]2C[C@]3(CO3)C[C@@](C)(O)O2)O[C@@H]1C` [#NP12, (2S,3Z)-5-{[(2R,3R,5S,6S)-6-{(2E,4E)-5-[(3R,5S,7S)-7-hydroxy-7-methyl-1,6-dioxaspiro[2.5]oct-5-yl]-3-methylpenta-2,4-dien-1-yl}-2,5-dimethyltetrahydro-2H-pyran-3-yl]amino}-5-oxopent-3-en-2-yl acetate], the IC50 in test [1] (96 h) was 13.8 nM; in test [2] (Homo sapiens, BT-474) it was 5.02 nM; in test [3] (96 h), 4.91 nM.

With `CC(=O)O[C@@H](C)/C=C\C(=O)N[C@@H]1C[C@H](C)[C@H](C/C=C(C)/C=C/[C@@H]2C[C@]3(CO3)C[C@@H](CC(=O)NCc3ccc(S(=O)(=O)N(C)C)cc3)O2)O[C@@H]1C` [#B98, (2S,3Z)-5-{[(2R,3R,5S,6S)-6-{(2E,4E)-5-[(3S,5S,7S)-7-(2-{[4-(dimethylsulfamoyl)benzyl]amino}-2-oxoethyl)-1,6-dioxaspiro[2.5]oct-5-yl]-3-methylpenta-2,4-dien-1-yl}-2,5-dimethyltetrahydro-2H-pyran-3-yl]amino}-5-oxopent-3-en-2-yl acetate], the half-inhibitory concentration (IC50) in test [1] (96 h) turned out to be 2.55 nM; in test [2] (Homo sapiens, BT-474) it was 5.75 nM; in test [3] (96 h), 8.7 nM.

`CC(/C=C/[C@@H]1C[C@]2(CO2)C[C@@H](CC(N)=O)O1)=C\C[C@@H]1O[C@H](C)[C@H](NC(=O)/C=C\[C@H](C)O)C[C@@H]1C` [#B39, (2Z,4S)—N-[(2R,3R,5S,6S)-6-{(2E,4E)-5-[(3S,5S,7S)-7-(2-amino-2-oxoethyl)-1,6-dioxaspiro[2.5]oct-5-yl]-3-methylpenta-2,4-dien-1-yl}-2,5-dimethyltetrahydro-2H-pyran-3-yl]-4-hydroxypent-2-enamide]: the IC50 is 4.65 nM in test [1] (96 h); 3.4 nM in test [2] (Homo sapiens, BT-474); 7.67 nM in test [3] (96 h).

For `CC(/C=C/[C@H]1O[C@H](CC(N)=O)C[C@@]2(CO2)[C@@H]1O)=C\C[C@@H]1O[C@H](C)[C@H](NC(=O)/C=C\[C@H](C)OC(=O)N2CCCCC2)C[C@@H]1C` [#B134, (2S,3Z)-5-{[(2R,3R,5S,6S)-6-{(2E,4E)-5-[(3R,4R,5R,7S)-7-(2-amino-2-oxoethyl)-4-hydroxy-1,6-dioxaspiro[2.5]oct-5-yl]-3-methylpenta-2,4-dien-1-yl}-2,5-dimethyltetrahydro-2H-pyran-3-yl]amino}-5-oxopent-3-en-2-yl piperidine-1-carboxylate], the IC50 in test [1] (96 h) was 1.8 nM; in test [2] (Homo sapiens, BT-474), 1.18 nM; in test [3] (96 h), 2.02 nM.

As to `CNc1cccc(CNC(=O)C[C@@H]2C[C@@]3(CO3)[C@H](O)[C@@H](/C=C/C(C)=C/C[C@@H]3O[C@H](C)[C@H](NC(=O)/C=C\[C@H](C)OC(C)=O)C[C@@H]3C)O2)c1` [#B83, (2S,3Z)-5-{[(2R,3R,5S,6S)-6-{(2E,4E)-5-[(3R,4R,5R,7S)-4-hydroxy-7-(2-{[3-(methylamino)benzyl]amino}-2-oxoethyl)-1,6-dioxaspiro[2.5]oct-5-yl]-3-methylpenta-2,4-dien-1-yl}-2,5-dimethyltetrahydro-2H-pyran-3-yl]amino}-5-oxopent-3-en-2-yl acetate], the IC50 in test [1] (96 h) stood at 1.05 nM; in test [2] (Homo sapiens, BT-474) it was 1.45 nM; in test [3] (96 h) it was 2.59 nM.

Take `CC(=O)O[C@@H](C)/C=C\C(=O)N[C@@H]1C[C@H](C)[C@H](C/C=C(C)/C=C/[C@@H]2C[C@]3(CO3)C[C@@H](CC(=O)NCCS(C)(=O)=O)O2)O[C@@H]1C` [#B99, (2S,3Z)-5-{[(2R,3R,5S,6S)-2,5-dimethyl-6-{(2E,4E)-3-methyl-5-[(3S,5S,7S)-7-(2-{[2-(methylsulfonyl)ethyl]amino}-2-oxoethyl)-1,6-dioxaspiro[2.5]oct-5-yl]penta-2,4-dien-1-yl}tetraydro-2H-pyran-3-yl]amino}-5-oxopent-3-en-2-yl acetate]: the results for the half-inhibitory concentration (IC50) in test [1], in test [2] and in test [3] were 3.28 nM, 7.87 nM and 21.5 nM, respectively.

For the compound `CC(=O)O[C@@H](C)/C=C\C(=O)N[C@@H]1C[C@H](C)[C@H](C/C=C(C)/C=C/[C@@H]2C[C@]3(CO3)C[C@@H](CC(=O)N[C@H]3CC[C@@H](N(C)C)CC3)O2)O[C@@H]1C` (relative stereo) [#B90, (2S,3Z)-5-{[(2R,3R,5S,6S)-6-{(2E,4E)-5-[(3S,5S,7S)-7-(2-{[cis-4-(dimethylamino)cyclohexyl]amino}-2-oxoethyl)-1,6-dioxaspiro[2.5]oct-5-yl]-3-methylpenta-2,4-dien-1-yl}-2,5-dimethyltetrahydro-2H-pyran-3-yl]amino}-5-oxopent-3-en-2-yl acetate], the half-inhibitory concentration (IC50) is 0.87 nM in test [1], 1.26 nM in test [2] and 3.9 nM in test [3].

Take `CC(/C=C/[C@@H]1C[C@]2(CO2)C[C@@H](CC(N)=O)O1)=C\C[C@@H]1O[C@H](C)[C@H](NC(=O)/C=C\C(C)N)C[C@@H]1C` (stereo partly drawn) [#B272, (2Z)-4-amino-N-[(2R,3R,5S,6S)-6-{(2E,4E)-5-[(3S,5S,7S)-7-(2-amino-2-oxoethyl)-1,6-dioxaspiro[2.5]oct-5-yl]-3-methylpenta-2,4-dien-1-yl}-2,5-dimethyltetrahydro-2H-pyran-3-yl]pent-2-enamide]: the IC50 in test [1] (96 h) and in test [3] (96 h) was above 100 nM each time.

Turning to `CC(=O)O[C@@H](C)/C=C\C(=O)N[C@@H]1C[C@H](C)[C@H](C/C=C(C)/C=C/[C@H]2O[C@H](CC(=O)N[C@H]3C[C@@H](O)C3)C[C@@]3(CO3)[C@@H]2O)O[C@@H]1C` [#B142, (2S,3Z)-5-{[(2R,3R,5S,6S)-6-{(2E,4E)-5-[(3R,4R,5R,7S)-4-hydroxy-7-{2-[(cis-3-hydroxycyclobutyl)amino]-2-oxoethyl}-1,6-dioxaspiro[2.5]oct-5-yl]-3-methylpenta-2,4-dien-1-yl}-2,5-dimethyltetrahydro-2H-pyran-3-yl]amino}-5-oxopent-3-en-2-yl acetate], the half-maximal inhibitory concentration (IC50) in test [1] (96 h) turned out to be 11.2 nM; in test [3] (96 h), 55.5 nM.

Turning to `COC(=O)C[C@@H]1C[C@@]2(CO2)[C@H](O)[C@@H](/C=C/C(C)=C/C[C@@H]2O[C@H](C)[C@H](NC(=O)/C=C\[C@H](C)O)C[C@@H]2C)O1` [#B235, methyl [(3R,5S,7R,8R)-8-hydroxy-7-{(1E,3E)-5-[(2S,3S,5R,6R)-5-{[(2Z,4S)-4-hydroxypent-2-enoyl]amino}-3,6-dimethyltetrahydro-2H-pyran-2-yl]-3-methylpenta-1,3-dien-1-yl}-1,6-dioxaspiro[2.5]oct-5-yl]acetate], the IC50 in test [1] (96 h) was 16.4 nM; in test [3] (96 h), 36.8 nM.

Turning to `CNN(C)C(=O)C[C@@H]1C[C@@]2(CO2)[C@H](O)[C@@H](/C=C/C(C)=C/C[C@@H]2O[C@H](C)[C@H](NC(=O)/C=C\[C@H](C)OC(C)=O)C[C@@H]2C)O1` [#B145, (2S,3Z)-5-({(2R,3R,5S,6S)-6-[(2E,4E)-5-{(3R,4R,5R,7S)-7-[2-(1,2-dimethylhydrazinyl)-2-oxoethyl]-4-hydroxy-1,6-dioxaspiro[2.5]oct-5-yl}-3-methylpenta-2,4-dien-1-yl]-2,5-dimethyltetrahydro-2H-pyran-3-yl}amino)-5-oxopent-3-en-2-yl acetate], the IC50 in test [1] (96 h) was found to be 0.408 nM; in test [3] (96 h) it was 2.03 nM.

Turning to `CC(=O)O[C@@H](C)/C=C\C(=O)N[C@@H]1C[C@H](C)[C@H](C/C=C(C)/C=C/[C@H]2O[C@H](CC(=O)Nc3ccc(C(N)=O)cc3)C[C@@]3(CO3)[C@@H]2O)O[C@@H]1C` [#B267, (2S,3Z)-5-{[(2R,3R,5S,6S)-6-{(2E,4E)-5-[(3R,4R,5R,7S)-7-{2-[(4-carbamoylphenyl)amino]-2-oxoethyl}-4-hydroxy-1,6-dioxaspiro[2.5]oct-5-yl]-3-methylpenta-2,4-dien-1-yl}-2,5-dimethyltetrahydro-2H-pyran-3-yl]amino}-5-oxopent-3-en-2-yl acetate], the IC50 in test [1] (96 h) was determined as 3.44 nM; in test [3] (96 h) it was 23.8 nM.

Turning to `CC(/C=C/[C@@H]1C[C@]2(CO2)C[C@@H](CC(N)=O)O1)=C\C[C@@H]1O[C@H](C)[C@H](NC(=O)/C=C/C(C)N)C[C@@H]1C` (stereo partly drawn) [#B271, (2E)-4-amino-N-[(2R,3R,5S,6S)-6-{(2E,4E)-5-[(3S,5S,7S)-7-(2-amino-2-oxoethyl)-1,6-dioxaspiro[2.5]oct-5-yl]-3-methylpenta-2,4-dien-1-yl}-2,5-dimethyltetrahydro-2H-pyran-3-yl]pent-2-enamide], the IC50 in test [1] and in test [3] was above 100 nM each time.

On to `CNNC(=O)C[C@@H]1C[C@@]2(CO2)[C@H](O)[C@@H](/C=C/C(C)=C/C[C@@H]2O[C@H](C)[C@H](NC(=O)/C=C\[C@H](C)OC(C)=O)C[C@@H]2C)O1` [#B143, (2S,3Z)-5-({(2R,3R,5S,6S)-6-[(2E,4E)-5-{(3R,4R,5R,7S)-4-hydroxy-7-[2-(2-methylhydrazinyl)-2-oxoethyl]-1,6-dioxaspiro[2.5]oct-5-yl}-3-methylpenta-2,4-dien-1-yl]-2,5-dimethyltetrahydro-2H-pyran-3-yl}amino)-5-oxopent-3-en-2-yl acetate], for which the IC50 in test [1] (96 h) amounted to 2.43 nM; in test [3] (96 h) it was 9.51 nM.

Regarding `COC(=O)C[C@@H]1C[C@@]2(CO2)[C@H](OC)[C@@H](/C=C/C(C)=C/C[C@@H]2O[C@H](C)[C@H](NC(=O)/C=C\[C@H](C)OC)C[C@@H]2C)O1` [#B240, methyl [(3R,5S,7R,8R)-8-methoxy-7-{(1E,3E)-5-[(2S,3S,5R,6R)-5-{[(2Z,4S)-4-methoxypent-2-enoyl]amino}-3,6-dimethyltetrahydro-2H-pyran-2-yl]-3-methylpenta-1,3-dien-1-yl}-1,6-dioxaspiro[2.5]oct-5-yl]acetate], the IC50 in test [1] (96 h) was 9.79 nM; in test [3] (96 h) it was 5.05 nM.

A word on the IC50: it is the concentration that gives 50% inhibition.

Values taken from patent publication US9504669B2, “Spliceostatin analogs and methods for their preparation” (PFIZER INC., priority 2012, dated 2016).
